Assay results published in PubChem BioAssay AID256 (DTP/NCI, 2004).
Values joined by “and” are separate entries in the source; they are usually repeats but may differ in a detail not shown here. Identical values can stand only once. Toxic doses and inconclusive results are not listed. The calls were made as follows: active = survival T/C of 150% or more; inactive = T/C below 125% in these data.

System: CD2F1 mice, L1210 leukemia ip, survival T/C
Assay: NCI In Vivo Anticancer Drug Screen. Data for tumor model L1210 Leukemia (intraperitoneal) in CD2F1 (CDF1) mice
Conditions: higher = longer survival
Outline: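 In this screen, transplantable tumors were grown in mice given either the compound or its vehicle. Results were expressed as the treated measurement relative to the control measurement.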

[1] = endpoint: mean survival time, dose: 100.0 mg/kg/injection, schedule: Q01DX009 (ip), vehicle: saline sonified
[2] = endpoint: mean survival time, dose: 100.0 mg/kg/injection, schedule: Q04DX003 (ip), vehicle: saline with Tween-80
[3] = endpoint: mean survival time, dose: 200.0 mg/kg/injection, schedule: Q01DX009 (ip), vehicle: saline sonified
[4] = endpoint: mean survival time, dose: 200.0 mg/kg/injection, schedule: Q04DX003 (ip), vehicle: saline with Tween-80
[5] = endpoint: mean survival time, dose: 400.0 mg/kg/injection, schedule: Q01DX009 (ip), vehicle: saline sonified
[6] = endpoint: mean survival time, dose: 400.0 mg/kg/injection, schedule: Q04DX003 (ip), vehicle: saline with Tween-80
[7] = endpoint: mean survival time, dose: 100.0 mg/kg/injection, schedule: Q04DX002 (ip), vehicle: saline with Tween-80
[8] = endpoint: mean survival time, dose: 200.0 mg/kg/injection, schedule: Q04DX002 (ip), vehicle: saline with Tween-80
[9] = endpoint: mean survival time, dose: 400.0 mg/kg/injection, schedule: Q04DX002 (ip), vehicle: saline with Tween-80
[10] = endpoint: mean survival time, dose: 100.0 mg/kg/injection, schedule: Q01DX009 (ip), vehicle: saline with Tween-80
[11] = endpoint: mean survival time, dose: 200.0 mg/kg/injection, schedule: Q01DX009 (ip), vehicle: saline with Tween-80
[12] = endpoint: mean survival time, dose: 400.0 mg/kg/injection, schedule: Q01DX009 (ip), vehicle: saline with Tween-80
[13] = endpoint: mean survival time, dose: 100.0 mg/kg/injection, schedule: Q01DX001 (ip), vehicle: saline with Tween-80
[14] = endpoint: mean survival time, dose: 200.0 mg/kg/injection, schedule: Q01DX001 (ip), vehicle: saline with Tween-80
[15] = endpoint: mean survival time, dose: 400.0 mg/kg/injection, schedule: Q01DX001 (ip), vehicle: saline with Tween-80

Measured: T/C

COc1ccc(C2(C#N)CCCC2)cc1
inactive: [1] 94 % of control | [2] 97 % of control | [3] 102 % of control | [4] 101 % of control | [5] 96 % of control | [6] 95 % of control

CCCCOC(=S)S.[Zn+2]
inactive: [2] 94 % of control | [4] 108 % of control | [6] 89 % of control

COc1ccc(COC(=O)Nc2ccccc2[N+](=O)[O-])cc1
inactive: [7] 91 % of control | [8] 87 % of control | [9] 91 % of control

O=C(c1ccccc1)c1cccc(C(Br)Br)c1
inactive: [10] 95 % of control | [11] 93 % of control | [12] 101 % of control

CC1(C)OCC(C(=O)C(OC(=O)c2ccccc2)C2COC(C)(C)O2)O1 (stereo not given)
inactive: endpoint: mean survival time, dose: 50.0 mg/kg/injection, schedule: Q01DX009 (ip), vehicle: Klucel (hydroxypropylcellulose) (HPC) 94 % of control | endpoint: mean survival time, dose: 100.0 mg/kg/injection, schedule: Q01DX009 (ip), vehicle: Klucel (hydroxypropylcellulose) (HPC) 88 % of control | endpoint: mean survival time, dose: 200.0 mg/kg/injection, schedule: Q01DX009 (ip), vehicle: Klucel (hydroxypropylcellulose) (HPC) 98 % of control

S=C1NC=CC(S)N1 (stereo not given)
inactive: [7] 103 % of control | [8] 98 % of control | [9] 98 % of control

O=C(CCl)Nc1cc(Cl)c(Cl)cc1Cl
inactive: [10] 97 % of control | [11] 94 % of control | [12] 102 % of control

NC(CSS(=O)(=O)O)=NCC1CCCCC1
inactive: endpoint: mean survival time, dose: 6.25 mg/kg/injection, schedule: Q04DX002 (ip), vehicle: saline with Tween-80 101 % of control and 107 % of control | endpoint: mean survival time, dose: 12.5 mg/kg/injection, schedule: Q04DX002 (ip), vehicle: saline with Tween-80 104 % of control and 112 % of control | endpoint: mean survival time, dose: 25.0 mg/kg/injection, schedule: Q04DX002 (ip), vehicle: saline with Tween-80 96 % of control

Cc1c2ccccc2c(CN(C)CC(=O)O)c2ccccc12
inactive: [2] 102 % of control | [4] 102 % of control

COC(=O)C1=NC=NC1=[N+]=[N-]
inactive: endpoint: mean survival time, dose: 10.0 mg/kg/injection, schedule: Q01DX001 (ip), vehicle: saline 96 % of control | endpoint: mean survival time, dose: 20.0 mg/kg/injection, schedule: Q01DX001 (ip), vehicle: saline 93 % of control

CCN(CC)CCNc1cc(OC)cc2cccnc12
inactive: endpoint: mean survival time, dose: 6.25 mg/kg/injection, schedule: Q04DX002 (ip), vehicle: saline 98 % of control | endpoint: mean survival time, dose: 12.5 mg/kg/injection, schedule: Q04DX002 (ip), vehicle: saline 98 % of control | endpoint: mean survival time, dose: 25.0 mg/kg/injection, schedule: Q04DX002 (ip), vehicle: saline 95 % of control

CC1(c2cc(F)cc3ccccc23)OC(=O)c2ccccc21 (stereo not given)
inactive: endpoint: median survival time, dose: 25.0 mg/kg/injection, schedule: Q04DX003 (ip), vehicle: saline with Tween-80 100 % of control | endpoint: median survival time, dose: 50.0 mg/kg/injection, schedule: Q04DX003 (ip), vehicle: saline with Tween-80 100 % of control | endpoint: median survival time, dose: 100.0 mg/kg/injection, schedule: Q04DX003 (ip), vehicle: saline with Tween-80 100 % of control | endpoint: median survival time, dose: 200.0 mg/kg/injection, schedule: Q04DX003 (ip), vehicle: saline with Tween-80 100 % of control

COc1ccc(NC(=O)Nc2ccccc2C(F)(F)F)cc1
inactive: [2] 98 % of control | [4] 96 % of control | [6] 90 % of control

Cc1cc(C)c(C)c(C(=O)C(=O)c2ccccc2)c1
inactive: endpoint: mean survival time, dose: 75.0 mg/kg/injection, schedule: Q01DX001 (ip), vehicle: other 93 % of control | endpoint: mean survival time, dose: 150.0 mg/kg/injection, schedule: Q01DX001 (ip), vehicle: other 94 % of control | endpoint: mean survival time, dose: 300.0 mg/kg/injection, schedule: Q01DX001 (ip), vehicle: other 100 % of control

CC(C)(C)OC(=O)NC(=O)CCC(N)C(=O)O (stereo not given)
inactive: [2] 94 % of control | [4] 91 % of control | [6] 92 % of control

COc1cc2c(cc1OC)C(CCN)NCC2 (stereo not given)
inactive: [13] 97 % of control | [14] 100 % of control | [15] 94 % of control

COc1ccc2nc3cc(Cl)ccc3c(Nc3cccc(NS(C)(=O)=O)c3)c2n1
inactive: endpoint: mean survival time, dose: 12.5 mg/kg/injection, schedule: Q01DX009 (ip), vehicle: other 100 % of control | endpoint: mean survival time, dose: 25.0 mg/kg/injection, schedule: Q01DX009 (ip), vehicle: other 93 % of control | endpoint: mean survival time, dose: 50.0 mg/kg/injection, schedule: Q01DX009 (ip), vehicle: other 89 % of control | endpoint: mean survival time, dose: 100.0 mg/kg/injection, schedule: Q01DX009 (ip), vehicle: other 93 % of control | endpoint: mean survival time, dose: 200.0 mg/kg/injection, schedule: Q01DX009 (ip), vehicle: other 93 % of control

Cc1ccc(NN=O)nc1
inactive: endpoint: median survival time, dose: 1.5 mg/kg/injection, schedule: Q01DX009 (ip), vehicle: water 110 % of control | endpoint: median survival time, dose: 1.56 mg/kg/injection, schedule: Q01DX009 (ip), vehicle: water 114 % of control | endpoint: median survival time, dose: 3.0 mg/kg/injection, schedule: Q01DX009 (ip), vehicle: water 114 % of control | endpoint: median survival time, dose: 3.12 mg/kg/injection, schedule: Q01DX009 (ip), vehicle: water 123 % of control | endpoint: median survival time, dose: 24.0 mg/kg/injection, schedule: Q01DX009 (ip), vehicle: water 115 % of control and 106 % of control
active: endpoint: median survival time, dose: 12.0 mg/kg/injection, schedule: Q01DX009 (ip), vehicle: water 156 % of control

CN(C)C(=O)Sc1ccc(N(C)C)cc1
inactive: [8] 107 % of control | [9] 107 % of control

C=C1C(C)C2C(Cc3ccccc3)NC(=O)C23C(OC(C)=O)C=CC(C)(O)C(=O)C(C)C/C=C/C3C1O (stereo not given)
inactive: endpoint: mean survival time, dose: 0.63 mg/kg/injection, schedule: Q01DX009 (ip), vehicle: Klucel (hydroxypropylcellulose) (HPC) 101 % of control | endpoint: mean survival time, dose: 1.25 mg/kg/injection, schedule: Q01DX009 (ip), vehicle: Klucel (hydroxypropylcellulose) (HPC) 101 % of control | endpoint: mean survival time, dose: 2.5 mg/kg/injection, schedule: Q01DX009 (ip), vehicle: Klucel (hydroxypropylcellulose) (HPC) 95 % of control | endpoint: mean survival time, dose: 5.0 mg/kg/injection, schedule: Q01DX009 (ip), vehicle: Klucel (hydroxypropylcellulose) (HPC) 98 % of control

O=C1CCC(=O)N1CC(O)COc1ccc(Cl)cc1 (stereo not given)
inactive: [2] 95 % of control | [4] 98 % of control | [6] 95 % of control

CC(C)CC(=O)Nc1ccccc1
inactive: [1] 101 % of control | [3] 102 % of control | [5] 93 % of control

N#CC(CC(=O)OCc1ccccc1)NC(=O)OCc1ccccc1 (stereo not given)
inactive: [4] 86 % of control | [6] 94 % of control

O=C1C(Cl)=C(NCC2CCC(CO)CC2)C(=O)c2ccccc21 (stereo not given)
inactive: endpoint: mean survival time, dose: 6.25 mg/kg/injection, schedule: Q04DX003 (ip), vehicle: saline with Tween-80 98 % of control | endpoint: mean survival time, dose: 12.5 mg/kg/injection, schedule: Q04DX003 (ip), vehicle: saline with Tween-80 97 % of control | endpoint: mean survival time, dose: 25.0 mg/kg/injection, schedule: Q04DX003 (ip), vehicle: saline with Tween-80 95 % of control and 98 % of control

O=[N+]([O-])c1ccc2nsnc2c1
inactive: [13] 103 % of control | [10] 103 % of control | [14] 106 % of control | [11] 114 % of control | [15] 107 % of control

CCOC(=O)CSCC(=O)C(C)(C)C
inactive: [13] 98 % of control | [14] 98 % of control | [15] 102 % of control

CCCCCCCCCCCCCCCCCCCCC1CCCCC1
inactive: [13] 91 % of control | [14] 98 % of control | [15] 92 % of control

CN(C)CCNCCN(C)C
inactive: endpoint: mean survival time, dose: 75.0 mg/kg/injection, schedule: Q01DX001 (ip), vehicle: saline 100 % of control | endpoint: mean survival time, dose: 150.0 mg/kg/injection, schedule: Q01DX001 (ip), vehicle: saline 100 % of control | endpoint: mean survival time, dose: 300.0 mg/kg/injection, schedule: Q01DX001 (ip), vehicle: saline 102 % of control

O=N/N=c1/c2[nH]cnc2ncn1O
inactive: endpoint: mean survival time, dose: 12.5 mg/kg/injection, schedule: Q01DX005 (ip), vehicle: distilled water + Tween-80 110 % of control | endpoint: mean survival time, dose: 25.0 mg/kg/injection, schedule: Q01DX005 (ip), vehicle: distilled water + Tween-80 93 % of control | endpoint: mean survival time, dose: 50.0 mg/kg/injection, schedule: Q01DX005 (ip), vehicle: distilled water + Tween-80 89 % of control | endpoint: mean survival time, dose: 100.0 mg/kg/injection, schedule: Q01DX005 (ip), vehicle: distilled water + Tween-80 88 % of control | endpoint: mean survival time, dose: 200.0 mg/kg/injection, schedule: Q01DX005 (ip), vehicle: distilled water + Tween-80 93 % of control

NS(=O)(=O)C1CCC(Cl)NC1 (stereo not given)
inactive: [2] 100 % of control | [4] 96 % of control | [6] 102 % of control
